EP1060162B1, “URETHANES DERIVED FROM AZACYCLOALKANES, THIO AND DITHIO ANALOGUES, PRODUCTION AND USE THEREOF AS 2,3 EPOXYSQUALENE LANESTEROL CYCLASE INHIBITORS” (Boehringer Ingelheim Pharma KG, priority 1997, dated 1999)
Where a name gives a salt, the structure may show the parent alone. Read-outs that look alike come from different tables or passages of the source.

How the values were obtained:
[1] = molecular target: T1, ^14C-Acetat-Einbau in die mit Digitonin fällbaren Steroide (Homo sapiens, UniProt P48449); assay: Inhibition of 14C-acetate incorporation into digitonin-precipitable steroids; format: cell-based; settings: read-out: Prozentwerte, um die die Verbindungen den ^14C-Acetat-Einbau hemmen
T1 sequence (P48449 2-732): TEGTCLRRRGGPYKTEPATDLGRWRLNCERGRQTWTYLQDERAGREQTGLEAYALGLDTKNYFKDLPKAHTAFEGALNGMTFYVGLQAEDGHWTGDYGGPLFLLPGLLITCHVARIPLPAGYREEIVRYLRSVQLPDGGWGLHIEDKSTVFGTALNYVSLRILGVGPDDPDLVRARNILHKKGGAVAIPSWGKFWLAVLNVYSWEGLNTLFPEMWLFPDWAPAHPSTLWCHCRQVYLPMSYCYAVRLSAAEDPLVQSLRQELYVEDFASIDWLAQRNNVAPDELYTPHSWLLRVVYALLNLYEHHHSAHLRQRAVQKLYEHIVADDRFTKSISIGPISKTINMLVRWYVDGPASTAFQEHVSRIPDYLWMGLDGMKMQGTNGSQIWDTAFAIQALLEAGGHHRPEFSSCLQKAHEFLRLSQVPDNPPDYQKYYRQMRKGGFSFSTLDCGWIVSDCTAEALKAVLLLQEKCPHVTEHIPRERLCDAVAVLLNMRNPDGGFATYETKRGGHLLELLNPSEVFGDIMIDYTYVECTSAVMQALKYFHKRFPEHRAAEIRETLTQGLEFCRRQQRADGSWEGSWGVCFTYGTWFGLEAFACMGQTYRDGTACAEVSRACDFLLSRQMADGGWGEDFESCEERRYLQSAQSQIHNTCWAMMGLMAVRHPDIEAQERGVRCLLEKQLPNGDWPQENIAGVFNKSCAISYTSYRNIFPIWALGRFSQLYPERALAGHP
Description: I. Messung der Hemmung des ^14C-Acetat-Einbaus in die mit Digitonin fällbaren Steroide:
Die Untersuchung der Hemmwirkung wurde nach der in J. Lipid. Res. 37, 148-157 [1996] beschriebenen Methode bei Testkonzentrationen von 10^-8 und 10^-9 Mol/l durchgeführt.
Die Prozentwerte, um die obigen Verbindungen den ^14C-Acetat-Einbau hemmen, sind in Tabelle 1 angegeben.

[2] = tested on: 2,3-Epoxisqualen-Lanosterol-Cyclase; assay: In-vivo effect in the rat after oral administration: 2,3-epoxysqualene level in the liver; parameters: species or system Ratte
Description: II. Messung der in-vivo Wirkung an der Ratte nach oraler Gabe
Die Inhibierung des Enzyms 2,3-Epoxisqualen-Lanosterol-Cyclase bewirkt eine Erhöhung der 2,3-Epoxisqualenspiegel in Leber und Plasma. Die Menge an gebildetem 2,3-Epoxisqualen dient daher als direktes Maß für die Wirkstärke am Ganztier.Die Bestimmung wurde nach der in J. Lipid. Res. 38, 564-575, [1997] beschriebenen Methode nach t = 3 bzw. 8 Stunden nach Substanzgabe mit Konzentrationen von c = 0.01, 0.03, 0.1, 0.3 und 1.0 mg/kg durchgeführt. In der folgenden Tabelle 3 sind beispielhaft die Ergebnisse für die vorstehend erwähnten Substanzen A, B, C, D, E, G, H, I und K angegeben.

[3] = tested on: Asp. niger ATCC 16404; assay: Fungistatic effect, serial dilution test (microtitre system); format: cell-based; settings: Aspergillus niger
Description: (§1) IV. Bestimmung der fungistatischen Wirkung
(§2) Die fungistatische Wirkung wurde über den Reihenverdünnungstest (Mikrotitersystem) bestimmt. Als Nährmedium diente Sabouraud-Bouillon. Das Inoculum betrug ca. 10^4 bis 10^5 KBE/ml (KBE = koloniebildende Einheiten); die Bebrütungszeit betrug 2 bis 4 Tage bei 26°C.
(§3) Es wurde die niedrigste Konzentration, die sichtbares Wachstum nicht mehr zuließ (minimale Hemmkonzentration MHK), bestimmt.
(§4) Geprüft wurden die vorstehend erwähnten Verbindungen A, B, D, E, F, H, I, K, L und M. Die Ergebnisse sind in der folgenden Tabelle 5 zusammengefaßt. Die MHK ist in µg/ml angegeben.

[4] = tested on: Cand. albicans ATCC 10231; assay: as above; format: cell-based; settings: Candida albicans
Description: as §1, §2, §3, §4

[5] = tested on: Pen.notatum CBS 19746; assay: as above; format: cell-based; settings: Penicillium chrysogenum
Description: as §1, §2, §3, §4

[6] = tested on: Rhod. rubra 49; assay: as above; format: cell-based; settings: read-out: MHK
Description: as §1, §2, §3, §4

[7] = tested on: Sacch. carlsbergensis ATCC 9080; assay: as above; format: cell-based; settings: Saccharomyces pastorianus
Description: as §1, §2, §3, §4

[8] = tested on: Trich. mentagrophytes ATCC 9129; assay: as above; format: cell-based; settings: Trichophyton mentagrophytes
Description: as §1, §2, §3, §4

[9] = Lipid lowering in the normolipaemic golden hamster; format: in vivo, Goldhamster; settings: Dosis 57.5 mg/kg/Tag; compared with control group fed without test substance
Description: III. Lipidsenkung am normolipämischen Goldhamster.
Diese Bestimmung wurde nach der in J. Lipid. Res. 38, 564-575, (1997) beschriebenen Methode durchgeführt. Am Ende des Versuchs wurde Gesamtcholesterol, β-Lipoprotein-Cholesterol sowie HDL-Cholesterol bestimmt und mit den Werten einer ohne Testsubstanz gefütterten Kontrollgruppe verglichen.

[10] = ATCC16404, Asp., Sabouraud-Bouillon, 2 bis 4 Tage bei 26°C, read-out: MHK
[11] = ATCC10231, Cand., Sabouraud-Bouillon, 2 bis 4 Tage bei 26°C, read-out: MHK
[12] = CBS19746, Pen., Sabouraud-Bouillon, 2 bis 4 Tage bei 26°C, read-out: MHK
[13] = Rhod., Sabouraud-Bouillon, 2 bis 4 Tage bei 26°C
[14] = ATCC9080, Sacc., Sabouraud-Bouillon, 2 bis 4 Tage bei 26°C, read-out: MHK
[15] = ATCC9129, Trich., Sabouraud-Bouillon, 2 bis 4 Tage bei 26°C, read-out: MHK

| inhibition at 0.01 µM ([1]; Testkonzentration 10^-8 Mol/l) [%] | inhibition at 0.001 µM ([1]; Testkonzentration 10^-9 Mol/l) [%] | MIC [3, 10] [µg/mL] | MIC [4, 11] [µg/mL] | MIC [5, 12] [µg/mL] | MIC [6, 13] [µg/mL] | MIC [7, 14] [µg/mL] | MIC [8, 15] [µg/mL] | SMILES | 2,3-Epoxysqualen-Konzentration in der Leber (Ratte) ([2]; c = 1.0 mg/kg, t = 3 h) [µg/g] | 2,3-Epoxysqualen-Konzentration in der Leber (Ratte) ([2]; c = 1.0 mg/kg, t = 8 h) [µg/g] | 2,3-Epoxysqualen-Konzentration in der Leber (Ratte) ([2]; c = 0.1 mg/kg, t = 3 h) [µg/g] | 2,3-Epoxysqualen-Konzentration in der Leber (Ratte) ([2]; c = 0.1 mg/kg, t = 8 h) [µg/g] | further results |
| --- | --- | --- | --- | --- | --- | --- | --- | --- | --- | --- | --- | --- | --- |
| 83 | 56 | – | – | – | – | – | – | CN(C)Cc1ccc(CC2CCN(C(=S)Oc3ccc(Cl)cc3)CC2)cc1 [G, N-(4-Chlorphenoxy)thiocarbonyl-4-[4-(dimethylaminomethyl)-benzyl]piperidin-hydrochlorid] | 87.4 | 134.2 | 10.3 | 11.5 | – |
| 88 | 64 | 64 | 32 | 32 | 8 | 64 | 1 | Cc1ccc(OC(=S)N2CCC(Cc3ccc(CN(C)C)cc3)CC2)cc1.Cl [L, 4-[4-(Dimethylaminomethyl)benzyl] -N-(4-methylphenoxy) - thiocarbonylpiperidin-hydrochlorid] | – | – | – | – | – |
| 59 | 23 | – | – | – | – | – | – | CN(C)Cc1ccc([C@H]2CC[C@H](N(C)C(=O)c3ccc(Cl)cc3)CC2)cc1 [V, reference compound] | – | – | – | – | – |
| 72 | 21 | – | – | – | – | – | – | Cc1ccc(CC(=O)O[C@H]2CC[C@H](c3ccc(CN(C)C)cc3)CC2)cc1 [W, trans-O-(p-Tolylacetyl)-4-(4-dimethylaminomethylphenyl)-cyclohexanol, reference compound] | – | – | – | – | – |

Second part, the compound before the results:

| SMILES | inhibition at 0.01 µM ([1]; Testkonzentration 10^-8 Mol/l) [%] | inhibition at 0.001 µM ([1]; Testkonzentration 10^-9 Mol/l) [%] | MIC [3, 10] [µg/mL] | MIC [4, 11] [µg/mL] | MIC [5, 12] [µg/mL] | MIC [6, 13] [µg/mL] | MIC [7, 14] [µg/mL] | MIC [8, 15] [µg/mL] | 2,3-Epoxysqualen-Konzentration in der Leber (Ratte) ([2]; c = 1.0 mg/kg, t = 3 h) [µg/g] | 2,3-Epoxysqualen-Konzentration in der Leber (Ratte) ([2]; c = 1.0 mg/kg, t = 8 h) [µg/g] | 2,3-Epoxysqualen-Konzentration in der Leber (Ratte) ([2]; c = 0.1 mg/kg, t = 3 h) [µg/g] | 2,3-Epoxysqualen-Konzentration in der Leber (Ratte) ([2]; c = 0.1 mg/kg, t = 8 h) [µg/g] | further results |
| --- | --- | --- | --- | --- | --- | --- | --- | --- | --- | --- | --- | --- | --- |
| CN(C)Cc1ccc(C(=O)C2CCN(C(=S)SCc3ccccc3)CC2)cc1.Cl [B, N-(Benzylthio) thiocarbonyl-4-[4-(dimethylaminomethyl)benzoyl]piperidin-hydrochlorid] | 85 | 47 | 32 | 64 | 8 | 16 | 32 | 2 | 39.2 | 42.0 | – | – | 2,3-Epoxysqualen-Konzentration in der Leber (Ratte) ([2]; c = 0.3 mg/kg, t = 3 h): 4.5 µg/g; 2,3-Epoxysqualen-Konzentration in der Leber (Ratte) ([2]; c = 0.3 mg/kg, t = 8 h): 5.8 µg/g |
| CN(C)Cc1ccc(SC2CCN(C(=O)OCc3ccccc3)CC2)cc1.Cl [C, N-Benzyloxycarbonyl-4-[4-(dimethylaminomethyl)phenylthio]-piperidin-hydrochlorid] | 78 | 57 | – | – | – | – | – | – | 3.8 | 2.0 | 0.5 | 1.3 | 2,3-Epoxysqualen-Konzentration in der Leber (Ratte) ([2]; c = 0.01 mg/kg, t = 3 h): 0.6 µg/g; 2,3-Epoxysqualen-Konzentration in der Leber (Ratte) ([2]; c = 0.01 mg/kg, t = 8 h): 3.0 µg/g; 2,3-Epoxysqualen-Konzentration in der Leber (Ratte) ([2]; c = 0.3 mg/kg, t = 3 h): 0.5 µg/g; 2,3-Epoxysqualen-Konzentration in der Leber (Ratte) ([2]; c = 0.3 mg/kg, t = 8 h): 1.8 µg/g |
| CN(C)Cc1ccc(SC2CCN(C(=O)Oc3ccc(Cl)cc3)CC2)cc1 [D, N-(4-Chlorphenoxy)carbonyl-4-[4-(dimethylaminomethyl)-phenylthio]piperidin-hydrochlorid] | – | – | – | – | – | – | – | – | – | – | 1.4 | 1.8 | inhibition at 0.001 µM [1]: 55%; inhibition at 0.01 µM [1]: 86%; 2,3-Epoxysqualen-Konzentration in der Leber (Ratte) ([2]; c = 0.01 mg/kg, t = 3 h): 1.3 µg/g; 2,3-Epoxysqualen-Konzentration in der Leber (Ratte) ([2]; c = 0.01 mg/kg, t = 8 h): 1.0 µg/g; MIC ([3]; ATCC16404, read-out: MHK): 256 µg/mL; MIC ([4]; ATCC10231, read-out: MHK): 64 µg/mL; MIC ([5]; CBS19746, read-out: MHK): 128 µg/mL; MIC [6]: 64 µg/mL; MIC ([7]; ATCC9080, read-out: MHK): 128 µg/mL; MIC ([8]; ATCC9129, read-out: MHK): 16 µg/mL |
| CN(C)Cc1ccc(CC2CCN(C(=S)SCc3ccccc3)CC2)cc1.Cl [E, N-(Benzylthio)thiocarbonyl-4-[4-(dimethylaminomethyl)-benzyl]piperidin-hydrochlorid] | 87 | 47 | 8 | 16 | 1 | 4 | 16 | 1 | – | – | 5.6 | 4.4 | 2,3-Epoxysqualen-Konzentration in der Leber (Ratte) ([2]; c = 0.01 mg/kg, t = 3 h): 0.9 µg/g; 2,3-Epoxysqualen-Konzentration in der Leber (Ratte) ([2]; c = 0.01 mg/kg, t = 8 h): 1.0 µg/g |
| CN(C)Cc1ccc(C=C2CCN(C(=S)SCc3ccccc3)CC2)cc1.Cl [F, N-(Benzylthio)thiocarbonyl-4-[4-(dimethylaminomethyl)-benzyliden]piperidin-hydrochlorid] | 84 | 45 | 8 | 16 | 4 | 4 | 16 | 2 | – | – | – | – | – |
| CN(C)Cc1ccc(CC2CCN(C(=O)Oc3ccc(F)cc3)CC2)cc1 [M, 4-[4-(Dimethylaminomethyl)benzyl]-N-(4-fluorphenoxy)-carbonylpiperidin-hydrochlorid] | – | – | – | – | – | – | – | – | – | – | – | – | inhibition at 0.001 µM [1]: 59%; inhibition at 0.01 µM [1]: 84%; Gesamtcholesterol [9]: -26.8%; HDL-Cholesterol [9]: -20.4%; β-Lipoprotein-Cholesterol [9]: -31.6%; MIC ([3]; ATCC16404, read-out: MHK): 64 µg/mL; MIC ([4]; ATCC10231, read-out: MHK): 128 µg/mL; MIC ([5]; CBS19746, read-out: MHK): 512 µg/mL; MIC [6]: 32 µg/mL; MIC ([7]; ATCC9080, read-out: MHK): 512 µg/mL; MIC ([8]; ATCC9129, read-out: MHK): 2 µg/mL |
| CN(C)Cc1ccc(SC2CCN(C(=S)SCc3ccccc3)CC2)cc1.Cl [Verbindung A, N-(Benzylthio)thiocarbonyl-4-[4-(dimethylaminomethyl)-phenylthio]piperidin-hydrochlorid] | 85 | 53 | 8 | 16 | 4 | 16 | 8 | 1 | 9.3 | 9.8 | – | – | 2,3-Epoxysqualen-Konzentration in der Leber (Ratte) ([2]; c = 0.3 mg/kg, t = 3 h): 2.0 µg/g; 2,3-Epoxysqualen-Konzentration in der Leber (Ratte) ([2]; c = 0.3 mg/kg, t = 8 h): 1.2 µg/g |
